Calls of active or inactive are those of the source.
Key:
HT-1080 = assay: cytotoxicity in HT1080 fibrosarcoma cells, cell-based, fluorescence readout (AID 620); format: functional; details: Homo sapiens
[1] = biological target: Luciferin 4-monooxygenase (Photinus pyralis, UniProt P08659); assay: Counter Screen for Luciferase-based Assay Positives. [Related pubchem assays: 620, 618, 411 ]
[2] = biological target: DNA dC->dU-editing enzyme APOBEC-3G (Homo sapiens, UniProt Q9HC16); format: functional;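 note: Dose-response counterscreen measuring inhibition of APOBEC3G DNA deaminase activity, run while confirming APOBEC3A inhibitors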
[3] = biological target: DNA dC->dU-editing enzyme APOBEC-3A (Homo sapiens, UniProt P31941); assay: Dose Response confirmation of small molecule APOBEC3A DNA Deaminase Inhibitors via a fluorescence-based single-stranded DNA deaminase assay. [Related pubchem assays (depositor defined):AID493011, AID493024]; format: functional
[4] = system: Streptococcus sp. 'group A'; assay: growth inhibition of control SK(-) GAS strain, dose response, counter-screen for streptokinase expression inhibitor project, luminescence, kanamycin, BacTiterGlo, confirmation (AID 1900); format: functional, organism-based
Streptococcus = assay: Group A Streptococcus viability loss, dose response, counter-screen for streptokinase expression inhibitor project, luminescence, BacTiterGlo (AID 1915); format: functional, organism-based;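 note: potency for reduction of bacterial viability or growth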
Streptokinase A = biological target: T1, Streptokinase A (Streptococcus pyogenes serotype M1, UniProt P10520); assay: S. pyogenes streptokinase expression inhibitors, potency, dose response, plasminogen activation absorbance, OD405 (AID 1914); format: functional, Streptococcus pyogenes M1 GAS;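 note: secreted streptokinase activity via plasminogen activation per viability signal from cell pellet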
T1 sequence (P10520 whole entry): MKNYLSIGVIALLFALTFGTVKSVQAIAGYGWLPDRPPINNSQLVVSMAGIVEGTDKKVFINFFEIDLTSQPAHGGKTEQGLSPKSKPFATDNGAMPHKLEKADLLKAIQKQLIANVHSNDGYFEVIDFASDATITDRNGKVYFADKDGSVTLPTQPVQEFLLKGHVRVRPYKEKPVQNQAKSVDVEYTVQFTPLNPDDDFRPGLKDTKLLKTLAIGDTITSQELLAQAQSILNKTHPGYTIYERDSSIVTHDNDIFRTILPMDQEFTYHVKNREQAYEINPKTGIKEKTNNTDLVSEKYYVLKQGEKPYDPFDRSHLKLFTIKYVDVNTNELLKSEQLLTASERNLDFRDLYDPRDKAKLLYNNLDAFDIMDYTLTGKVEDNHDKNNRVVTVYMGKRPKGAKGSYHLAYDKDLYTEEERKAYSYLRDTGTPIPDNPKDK

[5] = inhibitors of Vif binding to APOBEC3G peptide, primary screen, biochemical, TR-FRET, GST-Vif 1-94, biotin-A3G peptide, dose response retest (AID 1117319); format: functional;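 note: TR-FRET signal of purified GST-Vif binding a biotinylated A3G peptide; inhibitors lower the FRET signal by blocking Vif and A3G binding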
[6] = Jurkat T cell cytotoxicity, dose response, cytotoxicity control for P. falciparum gametocyte viability project, luminescence (AID 1117277); format: functional, cell-based;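 note: potency reflects loss of cellular ATP meaning fewer viable cells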
[7] = P. falciparum late gametocyte killing, dose response, luminescence (AID 1117278); format: functional, cell-based;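 note: gametocytes exposed to compound for 24 hours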
[8] = THP-1 cell cytotoxicity, dose response, cytotoxicity control for Vif-APOBEC3G degradation inhibitor project, THP-1 cells (AID 1117359); format: functional; details: Human immunodeficiency virus 1, THP-1
Cytochrome P450 2C9 = Cytochrome P450 2C9 (Homo sapiens, UniProt P11712)
Cytochrome P450 2C9, sequence (P11712 whole entry): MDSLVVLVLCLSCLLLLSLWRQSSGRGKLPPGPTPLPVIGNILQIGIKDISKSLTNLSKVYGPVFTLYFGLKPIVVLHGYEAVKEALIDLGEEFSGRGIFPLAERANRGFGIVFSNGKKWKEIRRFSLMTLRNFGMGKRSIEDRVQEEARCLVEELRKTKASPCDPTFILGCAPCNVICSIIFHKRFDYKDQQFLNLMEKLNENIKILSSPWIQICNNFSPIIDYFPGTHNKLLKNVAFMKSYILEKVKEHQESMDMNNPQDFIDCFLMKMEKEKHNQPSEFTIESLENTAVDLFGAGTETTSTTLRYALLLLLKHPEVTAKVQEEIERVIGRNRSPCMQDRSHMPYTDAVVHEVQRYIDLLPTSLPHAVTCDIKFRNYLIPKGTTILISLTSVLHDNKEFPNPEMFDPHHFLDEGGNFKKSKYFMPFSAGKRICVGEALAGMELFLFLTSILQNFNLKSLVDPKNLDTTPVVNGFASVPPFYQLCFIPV

DNA dC->dU-editing enzyme APOBEC-3G, sequence (Q9HC16 whole entry): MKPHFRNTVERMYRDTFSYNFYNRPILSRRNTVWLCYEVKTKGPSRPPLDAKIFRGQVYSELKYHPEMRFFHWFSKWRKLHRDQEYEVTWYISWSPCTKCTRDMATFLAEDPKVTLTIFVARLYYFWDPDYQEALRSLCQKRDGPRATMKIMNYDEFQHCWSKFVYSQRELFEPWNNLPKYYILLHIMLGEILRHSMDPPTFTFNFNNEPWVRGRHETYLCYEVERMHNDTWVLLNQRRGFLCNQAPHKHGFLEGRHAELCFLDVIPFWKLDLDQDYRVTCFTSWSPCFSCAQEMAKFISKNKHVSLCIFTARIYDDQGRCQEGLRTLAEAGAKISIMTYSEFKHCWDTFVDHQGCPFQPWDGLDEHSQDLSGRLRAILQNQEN
DNA dC->dU-editing enzyme APOBEC-3A, sequence (P31941 whole entry): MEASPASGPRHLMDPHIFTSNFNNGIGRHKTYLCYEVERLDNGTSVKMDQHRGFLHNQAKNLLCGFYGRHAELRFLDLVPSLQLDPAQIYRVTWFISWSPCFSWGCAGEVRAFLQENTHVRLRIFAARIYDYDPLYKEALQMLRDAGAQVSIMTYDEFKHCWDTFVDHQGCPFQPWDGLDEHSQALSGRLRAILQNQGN
Luciferin 4-monooxygenase, sequence (P08659 whole entry): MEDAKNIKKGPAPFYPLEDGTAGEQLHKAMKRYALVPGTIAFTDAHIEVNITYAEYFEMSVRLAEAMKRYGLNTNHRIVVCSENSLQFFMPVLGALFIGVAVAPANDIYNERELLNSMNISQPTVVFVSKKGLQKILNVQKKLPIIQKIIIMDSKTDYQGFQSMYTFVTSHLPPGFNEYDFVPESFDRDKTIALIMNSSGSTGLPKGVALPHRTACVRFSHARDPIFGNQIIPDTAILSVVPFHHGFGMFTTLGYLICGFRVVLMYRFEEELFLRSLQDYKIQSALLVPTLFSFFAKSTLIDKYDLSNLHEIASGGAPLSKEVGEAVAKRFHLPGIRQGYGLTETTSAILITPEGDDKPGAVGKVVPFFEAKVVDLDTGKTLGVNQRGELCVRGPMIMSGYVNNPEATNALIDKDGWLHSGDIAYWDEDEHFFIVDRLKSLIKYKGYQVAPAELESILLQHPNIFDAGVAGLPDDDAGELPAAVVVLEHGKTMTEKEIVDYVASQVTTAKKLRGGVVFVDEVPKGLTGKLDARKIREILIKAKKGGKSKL

SMILES: Cc1c(C(=O)NCC2CCCO2)oc2ccc3c(c12)C(=O)CC(C)(C)O3 (stereo not given)
- EC50 (HT-1080): > 50 µM (not active)
- EC50 [1]: 0.54 µM (active)

SMILES: CC1=CC(C)(C)[N+](C)(C)c2ccc(C)cc21
- IC50 [2]: 3.44 µM (active)
- IC50 [3]: 2.06 µM (active)

SMILES: COC(=O)c1c[nH]nc1N=C(S)Nc1ccc(C)cc1Cl
- EC50 [4]: 51.6 µM (active)
- EC50 (Streptococcus): > 150 µM (not active)
- EC50 (Streptokinase A): 56.8 µM (active)
- IC50 [5]: > 100 µM (active)

SMILES: CCC(Sc1nc2cc(OC)c(OC)cc2c(=O)n1Cc1ccco1)C(=O)NCCOC (stereo not given)
- IC50 [5]: > 100 µM (active)

SMILES: CCN(CC)CCCN1C(=O)CSC1c1ccc2c(c1)OCO2 (stereo not given)
- IC50 [6]: > 83.3 µM (inactive)
- IC50 [7]: > 109 µM (inactive)

SMILES: COc1ccc(CC(=O)Nc2ccc(C(N)=O)cc2)cc1
- IC50 [6]: > 83.3 µM (inactive)
- IC50 [7]: > 109 µM (inactive)

SMILES: O=C(COc1ccccc1/C=C1/NC(=O)NC1=O)Nc1ccccc1
- IC50 [2]: 3.26 µM (active)
- IC50 [3]: 3.71 µM (active)

SMILES: O=C(Cn1cnc2c(nnn2Cc2ccc(Cl)cc2)c1=O)NCc1ccco1
- IC50 [5]: > 100 µM (active)

SMILES: CCOC(=O)c1nc(O)c2c(C)c(C)sc2n1
- CC50 [8]: > 40 µM (active)
- AC50 (Cytochrome P450 2C9): 20 µM (inconclusive)

SMILES: CCC(C)Sc1nc2c(c(=O)[nH]c(=O)n2C)n1CC(O)COc1ccccc1C (stereo not given)
- IC50 [6]: > 83.3 µM (inactive)
- IC50 [7]: > 109 µM (inactive)
